Values after ≈ are worked out from the molar mass of the structure shown.
Key:
[1] = system: Acinetobacter baumannii; experiment: Antimicrobial activity against multidrug-resistant Acinetobacter baumannii AYE by microdilution broth method; format: functional
[2] = system: Enterococcus faecium; experiment: Antibacterial activity against vancomycin resistant Enterococcus faecium NCTC 12204 by microdilution broth method; format: functional
[3] = system: Enterococcus faecalis; experiment: Antibacterial activity against vancomycin resistant Enterococcus faecalis NCTC 12201 by microdilution broth method; format: functional
[4] = system: Staphylococcus aureus; experiment: Antibacterial activity against methicillin resistant Staphylococcus aureus NCTC 13277 by microdilution broth method; format: functional
[5] = system: Klebsiella pneumoniae; experiment: Antimicrobial activity against multidrug-resistant Klebsiella pneumoniae 16 by microdilution broth method; format: functional
[6] = system: Klebsiella pneumoniae; experiment: Antimicrobial activity against multidrug-resistant Klebsiella pneumoniae 46704 by microdilution broth method; format: functional
[7] = system: Klebsiella pneumoniae; experiment: Antimicrobial activity against multidrug-resistant Klebsiella pneumoniae 51851 by microdilution broth method; format: functional
[8] = system: Acinetobacter baylyi; experiment: Antimicrobial activity against multidrug-resistant Acinetobacter baylyi ADP1 by microdilution broth method; format: functional
[9] = system: Escherichia coli; experiment: Antimicrobial activity against multidrug-resistant Escherichia coli CFI_017_VIM4 by microdilution broth method; format: functional
[10] = system: Escherichia coli; experiment: Antimicrobial activity against multidrug-resistant Escherichia coli CFI_033_NDM by microdilution broth method; format: functional
[11] = system: Escherichia coli; experiment: Antimicrobial activity against multidrug-resistant Escherichia coli CFI_161_NDM_5_OXA_181 by microdilution broth method; format: functional
[12] = system: Burkholderia multivorans; experiment: Antimicrobial activity against multidrug-resistant Burkholderia multivorans C1962 by microdilution broth method; format: functional
[13] = system: Burkholderia cenocepacia; experiment: Antimicrobial activity against multidrug-resistant Burkholderia cenocepacia K56-2 by microdilution broth method; format: functional
[14] = Antimicrobial activity against multidrug-resistant Burkholderia cepacia complex CEP509 by microdilution broth method; format: functional
[15] = Antimicrobial activity against multidrug-resistant Burkholderia cepacia complex NCTC 17765 by microdilution broth method; format: functional
[16] = Antimicrobial activity against multidrug-resistant Burkholderia cepacia complex LMG 17997 by microdilution broth method; format: functional
[17] = system: Klebsiella pneumoniae; experiment: Antibacterial activity against multidrug-resistant Klebsiella pneumoniae NCTC 13368 measured after 10 passages by microdilution broth method; format: functional
[18] = system: Klebsiella pneumoniae; experiment: Antimicrobial activity against multidrug-resistant Klebsiella pneumoniae 16 in presence of efflux pump inhibitor CCCP by microdilution broth method; format: functional
[19] = system: Acinetobacter baumannii; experiment: Antimicrobial activity against multidrug-resistant Acinetobacter baumannii NCTC 13424 in presence of efflux pump inhibitor CCCP by microdilution broth method; format: functional
[20] = system: Pseudomonas aeruginosa; experiment: Antimicrobial activity against Pseudomonas aeruginosa PAO1 in presence of efflux pump inhibitor CCCP by microdilution broth method; format: functional
[21] = system: Pseudomonas aeruginosa; experiment: Antimicrobial activity against multidrug-resistant Pseudomonas aeruginosa NCTC 13437 in presence of efflux pump inhibitor CCCP by microdilution broth method; format: functional
[22] = system: Acinetobacter baumannii; experiment: Antimicrobial activity against Acinetobacter baumannii ATCC 17978 in presence of efflux pump inhibitor PAbetaN by microdilution broth method; format: functional
[23] = Ratio of MIC for Pseudomonas aeruginosa PAO1 to MIC for Pseudomonas aeruginosa PW1783 harboring MexAB-OprM mutant; format: functional
[24] = system: Klebsiella pneumoniae; experiment: Ratio of MIC for multidrug-resistant Klebsiella pneumoniae 16 to MIC for multidrug-resistant Klebsiella pneumoniae 16 in presence of membrane permeabilizer PMBN; format: functional
[25] = system: Pseudomonas aeruginosa; experiment: Ratio of MIC for Pseudomonas aeruginosa PAO1 to MIC for Pseudomonas aeruginosa PAO1 in presence of membrane permeabilizer PMBN; format: functional
[26] = system: DNA; experiment: Stabilization of 5'-FAM-TAT-AGA-TAT-AGA-TAT-TTT-ATA-TCT-ATA-TCT-ATA-3'-TAMRA DNA (unknown origin) assessed as reduction in change in melting temperature at 1:1 to 5:1 ligand to DNA ratio measured after 3 hrs by FRET-based assay relative to control; format: ADME, nucleic-acid assay
[27] = Cytotoxicity against human WI38 cells assessed as cell viability at 20 uM measured after 24 hrs by MTT assay relative to control; format: cell-based, WI-38; details: read-out: Activity
[28] = Selectivity ratio of cytotoxicity against human WI38 cells to MIC for Pseudomonas aeruginosa PAO1; format: toxicity, cell-based
[29] = Selectivity ratio of cytotoxicity against human WI38 cells to MIC for multidrug-resistant Pseudomonas aeruginosa NCTC 13437; format: toxicity, cell-based
[30] = Selectivity ratio of cytotoxicity against human WI38 cells to MIC for vancomycin sensitive Enterococcus faecalis NCTC 775; format: toxicity, cell-based
[31] = Selectivity ratio of cytotoxicity against human WI38 cells to MIC for methicillin resistant Staphylococcus aureus NCTC 13616; format: toxicity, cell-based
[32] = biological target: DNA gyrase (Staphylococcus aureus, UniProt P0A0K8+P20831); experiment: Inhibition of Staphylococcus aureus DNA gyrase using relaxed pNO1 as substrate by gel based fluorescence assay; format: protein-complex assay
[33] = biological target: DNA gyrase (Escherichia coli, UniProt P0AES6+P0AES4); experiment: Inhibition of Escherichia coli DNA gyrase using relaxed pNO1 as substrate by gel based fluorescence assay; format: protein-complex assay
[34] = biological target: T1, DNA repair protein RecN (Escherichia coli) (UniProt P05824); experiment: Induction of Escherichia coli K12 MG1655 recN promotor measured at 30 mins interval for 20 hrs by fluorescence assay relative to control; details: Escherichia coli str. K-12 substr. MG1655
T1 sequence (whole entry): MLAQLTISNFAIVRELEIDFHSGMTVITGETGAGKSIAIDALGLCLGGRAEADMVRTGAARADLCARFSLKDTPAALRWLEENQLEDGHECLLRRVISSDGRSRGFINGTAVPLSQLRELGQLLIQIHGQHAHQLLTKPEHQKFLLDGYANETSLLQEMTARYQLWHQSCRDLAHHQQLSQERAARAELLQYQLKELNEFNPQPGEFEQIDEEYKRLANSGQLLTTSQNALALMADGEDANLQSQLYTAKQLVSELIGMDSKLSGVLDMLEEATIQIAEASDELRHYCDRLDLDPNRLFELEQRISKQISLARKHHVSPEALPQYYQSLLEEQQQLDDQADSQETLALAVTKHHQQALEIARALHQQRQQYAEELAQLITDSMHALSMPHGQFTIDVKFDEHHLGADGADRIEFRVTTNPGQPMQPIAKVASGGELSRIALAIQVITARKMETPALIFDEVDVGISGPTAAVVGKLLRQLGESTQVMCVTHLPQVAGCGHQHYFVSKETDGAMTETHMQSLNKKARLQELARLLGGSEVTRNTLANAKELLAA

[35] = biological target: T2, Cell division inhibitor SulA (Escherichia coli K-12) (UniProt P0AFZ5); experiment: Induction of Escherichia coli K12 MG1655 sulA promotor measured at 30 mins interval for 20 hrs by fluorescence assay relative to control; details: Escherichia coli str. K-12 substr. MG1655
T2 sequence (whole entry): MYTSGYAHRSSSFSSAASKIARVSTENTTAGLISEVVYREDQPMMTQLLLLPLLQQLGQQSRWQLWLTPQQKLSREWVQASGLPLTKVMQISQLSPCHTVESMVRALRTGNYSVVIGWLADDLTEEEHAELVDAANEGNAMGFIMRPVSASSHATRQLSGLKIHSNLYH

[36] = system: Klebsiella pneumoniae; experiment: Antimicrobial activity against Klebsiella pneumoniae tnkp1_lr150124p14q189 by microdilution broth method; format: functional

Sequence of DNA gyrase (Staphylococcus aureus, UniProt P0A0K8+P20831) (P0A0K8 whole entry): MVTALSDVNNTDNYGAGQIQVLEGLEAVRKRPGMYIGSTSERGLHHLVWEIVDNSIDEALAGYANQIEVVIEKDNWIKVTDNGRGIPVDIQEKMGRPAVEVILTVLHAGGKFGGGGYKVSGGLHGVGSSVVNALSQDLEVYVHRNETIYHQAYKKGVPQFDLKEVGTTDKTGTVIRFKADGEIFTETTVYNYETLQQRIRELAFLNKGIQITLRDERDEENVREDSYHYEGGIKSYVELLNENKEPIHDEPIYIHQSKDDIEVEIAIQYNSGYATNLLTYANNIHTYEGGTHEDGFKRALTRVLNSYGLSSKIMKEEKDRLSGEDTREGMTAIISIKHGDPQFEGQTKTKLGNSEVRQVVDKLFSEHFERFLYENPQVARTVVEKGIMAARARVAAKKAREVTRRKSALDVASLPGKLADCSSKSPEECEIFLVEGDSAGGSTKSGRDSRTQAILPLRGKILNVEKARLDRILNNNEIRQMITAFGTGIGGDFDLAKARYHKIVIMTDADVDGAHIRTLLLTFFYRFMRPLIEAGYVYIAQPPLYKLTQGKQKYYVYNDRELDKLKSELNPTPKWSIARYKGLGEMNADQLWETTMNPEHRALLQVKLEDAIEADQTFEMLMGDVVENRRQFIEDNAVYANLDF
Sequence of DNA gyrase (Staphylococcus aureus, UniProt P0A0K8+P20831) (P20831 whole entry): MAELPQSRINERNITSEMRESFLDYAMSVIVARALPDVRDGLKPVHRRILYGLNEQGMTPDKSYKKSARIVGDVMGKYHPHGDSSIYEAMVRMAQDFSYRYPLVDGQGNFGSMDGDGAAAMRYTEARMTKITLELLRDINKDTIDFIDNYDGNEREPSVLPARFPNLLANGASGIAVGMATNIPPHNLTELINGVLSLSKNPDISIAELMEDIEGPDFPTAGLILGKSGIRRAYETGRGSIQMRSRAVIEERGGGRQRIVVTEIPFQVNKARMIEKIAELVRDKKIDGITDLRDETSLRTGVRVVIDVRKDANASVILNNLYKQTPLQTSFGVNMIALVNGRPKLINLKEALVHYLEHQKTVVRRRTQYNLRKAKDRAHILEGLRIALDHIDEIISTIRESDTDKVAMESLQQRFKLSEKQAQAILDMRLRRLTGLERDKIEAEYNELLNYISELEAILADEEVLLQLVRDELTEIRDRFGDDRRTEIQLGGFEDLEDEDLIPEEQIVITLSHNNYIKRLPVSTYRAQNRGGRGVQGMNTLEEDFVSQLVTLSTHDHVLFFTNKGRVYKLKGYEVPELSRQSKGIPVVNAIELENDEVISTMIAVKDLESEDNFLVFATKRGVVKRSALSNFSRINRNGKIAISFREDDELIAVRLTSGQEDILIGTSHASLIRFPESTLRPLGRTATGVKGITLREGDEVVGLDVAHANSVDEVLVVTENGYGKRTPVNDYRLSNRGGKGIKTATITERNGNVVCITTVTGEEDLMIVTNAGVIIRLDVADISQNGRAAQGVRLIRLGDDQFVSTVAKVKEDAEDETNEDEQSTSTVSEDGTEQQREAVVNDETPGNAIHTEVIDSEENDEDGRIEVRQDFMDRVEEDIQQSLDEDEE

Row | Structure (SMILES) | MIC [1] [µg/mL] | MIC [2] [µg/mL] | MIC [3] [µg/mL] | MIC [4] [µg/mL] | MIC [5] [µg/mL] | MIC [6] [µg/mL] | MIC [7] [µg/mL] | MIC [8] [µg/mL] | MIC [9] [µg/mL] | MIC [10] [µg/mL] | MIC [11] [µg/mL] | MIC [12] [µg/mL] | MIC [13] [µg/mL] | MIC [14] [µg/mL] | MIC [15] [µg/mL] | MIC [16] [µg/mL] | MIC [17] [µg/mL] | MIC [18] [µg/mL] | MIC [19] [µg/mL] | MIC [20] [µg/mL] | further results
1 | COc1cc2c(cc1OCCCC(=O)Nc1cc(C(=O)Nc3ccc4oc(C(=O)N5CCSCC5)cc4c3)n(C)c1)N=C[C@@H]1CCCN1C2=O | 2 to 4 (≈ 2.86 to 5.72 µM) | 0.03 (≈ 0.0429 µM) | 0.25 (≈ 0.358 µM) | 2 (≈ 2.86 µM) | 1 (≈ 1.43 µM) | 4 (≈ 5.72 µM) | 4 (≈ 5.72 µM) | 1 (≈ 1.43 µM) | 2 (≈ 2.86 µM) | 1 (≈ 1.43 µM) | 1 (≈ 1.43 µM) | > 32 | 1 (≈ 1.43 µM) | 8 (≈ 11.4 µM) | 1 (≈ 1.43 µM) | 0.25 (≈ 0.358 µM) | ≥ 128 | 0.12 to 1 | 1 | > 32 | MIC [21]: > 32 µg/mL; MIC [22]: 2 µg/mL; Ratio [23]: > 8; Ratio [24]: 4; Ratio [25]: >=8 - 64; fold change (FC) [26]: 3 to 4; viability at 24 h, 20 µM [27]: > 85%; selectivity ratio [28]: 10; selectivity ratio [29]: 10; selectivity ratio [30]: 100; selectivity ratio [31]: 100; IC50 [32]: Nd(Insoluble); IC50 [33]: Nd(Insoluble); fold change (FC) [34]: 6 to 11; fold change (FC) [35]: 6 to 7; MIC [36]: > 128 µg/mL
2 | COc1cc2c(cc1OCCCC(=O)Nc1cc(C(=O)Nc3ccc4sc(C(=O)N(C)C)cc4c3)n(C)c1)N=C[C@@H]1CCCN1C2=O | 0.5 to 1 (≈ 0.761 to 1.52 µM) | 0.03 (≈ 0.0457 µM) | 0.03 (≈ 0.0457 µM) | 0.06 (≈ 0.0914 µM) | 0.25 to 1 (≈ 0.381 to 1.52 µM) | 1 (≈ 1.52 µM) | 2 (≈ 3.05 µM) | 0.125 (≈ 0.19 µM) | 1 (≈ 1.52 µM) | 0.5 (≈ 0.761 µM) | 0.5 (≈ 0.761 µM) | 2 (≈ 3.05 µM) | 2 (≈ 3.05 µM) | 2 (≈ 3.05 µM) | 0.125 (≈ 0.19 µM) | 0.125 (≈ 0.19 µM) | > 32 | 0.06 to 0.5 | 0.25 | > 32 | MIC [21]: > 32 µg/mL; MIC [22]: 0.25 µg/mL; Ratio [23]: > 8; Ratio [24]: 4; Ratio [25]: >=4 - 16; fold change (FC) [26]: 3 to 4; viability at 24 h, 20 µM [27]: > 85%; selectivity ratio [28]: 10; selectivity ratio [29]: 10; selectivity ratio [30]: 100; selectivity ratio [31]: 100; IC50 ([32]; read-out: IC50 (converted)): 4.81 µM; IC50 [33]: Nd(Insoluble); fold change (FC) [34]: 6 to 11; fold change (FC) [35]: 6 to 7; MIC [36]: 16 to 32 µg/mL (≈ 24.4 to 48.7 µM)

Reference: ChEMBL document CHEMBL4610120, “New Broad-Spectrum Antibiotics Containing a Pyrrolobenzodiazepine Ring with Activity against Multidrug-Resistant Gram-Negative Bacteria” (J Med Chem, 2020)
